Results published in US10815230B2, “Casein kinase 1 delta inhibitor” (ELECTROPHORETICS LIMITED, priority 2015, dated 2020).

Experiments:
Experiment in all cases: KINOMEscan binding assay
Conditions in all cases: read-out: % Ctrl @ 10000 nM
[1] = molecular target: ABL1 (Q252H) phosphorylated (Homo sapiens, UniProt P00519, Q252H)
ALK (C1156Y) = ALK (C1156Y) (Homo sapiens, UniProt Q9UM73, C1156Y)
AURKA = AURKA (Homo sapiens, UniProt O14965)
BTK = BTK (Homo sapiens, UniProt Q06187)
CDK5 = CDK5 (Homo sapiens, UniProt Q00535)
Sequence of CDK5 (Q00535 whole entry): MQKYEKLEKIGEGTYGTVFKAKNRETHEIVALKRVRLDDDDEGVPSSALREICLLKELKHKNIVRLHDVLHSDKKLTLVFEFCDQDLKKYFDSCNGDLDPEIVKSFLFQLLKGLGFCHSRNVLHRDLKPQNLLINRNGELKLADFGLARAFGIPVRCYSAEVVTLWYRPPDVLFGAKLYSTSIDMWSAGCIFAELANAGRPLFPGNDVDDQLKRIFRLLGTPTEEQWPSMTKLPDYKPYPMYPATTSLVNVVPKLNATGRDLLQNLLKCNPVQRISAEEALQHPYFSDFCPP

CLK1 = CLK1 (Homo sapiens, UniProt P49759)
DCAMKL1 = DCAMKL1 (Homo sapiens, UniProt O15075)
[2] = molecular target: EGFR (L747-E749del, A750P) (Homo sapiens, UniProt P00533, A750P/DEL747-749)
[3] = molecular target: EGFR (L747-T751del, Sins) (Homo sapiens, UniProt P00533, DEL747-750/T751S)
Sequence of EGFR (L747-T751del, Sins) (P00533 with tags, fused parts or gaps DEL747-750/T751S limits assumed): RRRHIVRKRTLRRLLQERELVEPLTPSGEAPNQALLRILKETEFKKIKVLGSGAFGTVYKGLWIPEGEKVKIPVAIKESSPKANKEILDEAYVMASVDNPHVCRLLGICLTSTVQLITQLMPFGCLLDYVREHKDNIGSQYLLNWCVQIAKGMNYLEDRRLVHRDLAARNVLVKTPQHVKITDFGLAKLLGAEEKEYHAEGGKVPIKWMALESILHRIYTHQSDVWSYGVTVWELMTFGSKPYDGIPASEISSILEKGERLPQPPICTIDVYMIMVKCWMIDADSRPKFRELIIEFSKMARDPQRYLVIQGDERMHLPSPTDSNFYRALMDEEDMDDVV

EPHA2 = EPHA2 (Homo sapiens, UniProt P29317)
EPHA7 = EPHA7 (Homo sapiens, UniProt Q15375)
EPHB4 = EPHB4 (Homo sapiens, UniProt P54760)
HIPK3 = HIPK3 (Homo sapiens, UniProt Q9H422)
IKK-alpha = IKK-alpha (Homo sapiens, UniProt O15111)
INSRR = INSRR (Homo sapiens, UniProt P14616)
KIT (A829P) = KIT (A829P) (Homo sapiens, UniProt P10721, A829P)
Sequence of KIT (A829P) (P10721 26-976 A829P): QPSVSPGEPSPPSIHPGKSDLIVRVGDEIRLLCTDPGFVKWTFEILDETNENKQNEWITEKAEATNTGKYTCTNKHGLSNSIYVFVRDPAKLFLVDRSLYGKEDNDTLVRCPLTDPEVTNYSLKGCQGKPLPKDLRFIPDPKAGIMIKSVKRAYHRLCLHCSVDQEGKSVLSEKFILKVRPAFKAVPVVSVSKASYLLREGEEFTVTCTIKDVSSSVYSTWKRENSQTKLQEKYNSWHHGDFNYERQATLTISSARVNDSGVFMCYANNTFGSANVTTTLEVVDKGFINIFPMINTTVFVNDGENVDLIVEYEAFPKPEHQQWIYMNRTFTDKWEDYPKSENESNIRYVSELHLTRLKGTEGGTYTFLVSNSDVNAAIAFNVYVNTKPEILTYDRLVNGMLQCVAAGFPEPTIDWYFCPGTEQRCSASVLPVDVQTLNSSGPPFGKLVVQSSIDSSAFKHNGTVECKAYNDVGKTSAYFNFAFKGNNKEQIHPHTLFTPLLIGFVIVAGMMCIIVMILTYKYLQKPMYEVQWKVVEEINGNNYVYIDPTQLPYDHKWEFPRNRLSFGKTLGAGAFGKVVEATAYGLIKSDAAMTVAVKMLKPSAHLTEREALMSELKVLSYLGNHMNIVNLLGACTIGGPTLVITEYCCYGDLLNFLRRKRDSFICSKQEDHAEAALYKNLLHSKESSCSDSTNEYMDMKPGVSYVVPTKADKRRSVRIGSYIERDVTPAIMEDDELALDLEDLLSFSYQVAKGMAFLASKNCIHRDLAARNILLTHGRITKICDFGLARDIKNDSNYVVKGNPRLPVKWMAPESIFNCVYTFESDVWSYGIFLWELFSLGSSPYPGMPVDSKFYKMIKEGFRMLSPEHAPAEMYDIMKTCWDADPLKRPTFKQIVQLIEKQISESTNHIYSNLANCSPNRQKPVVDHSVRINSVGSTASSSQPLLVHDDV

LRRK2 (G2019S) = molecular target: T1, LRRK2 (G2019S) (Homo sapiens, UniProt Q5S007, G2019S)
T1 construct: T7 phage fusion (most assays) or DNA label after HEK293 expression; purchased DiscoveRx (KINOMEscan, LeadHunter Discovery services); host or cells: T7 phage in E. coli (BL21-derived) or HEK293

MAPKAPK5 = molecular target: T2, MAPKAPK5 (Homo sapiens, UniProt Q8IW41)
T2 construct: T7 phage fusion (most assays) or DNA label after HEK293 expression; purchased DiscoveRx (KINOMEscan, LeadHunter Discovery services); host or cells: T7 phage in E. coli (BL21-derived) or HEK293

MARK2 = MARK2 (Homo sapiens, UniProt Q7KZI7)
MST1R = MST1R (Homo sapiens, UniProt Q04912)
MST4 = MST4 (Homo sapiens, UniProt Q9P289)
MTOR = MTOR (Homo sapiens, UniProt P42345)
NEK10 = NEK10 (Homo sapiens, UniProt Q6ZWH5)
NIM1 = NIM1 (Homo sapiens, UniProt Q8IY84)
PIK3CA (I800L) = PIK3CA (I800L) (Homo sapiens, UniProt P42336, I800L)
Sequence of PIK3CA (I800L) (P42336 whole entry I800L): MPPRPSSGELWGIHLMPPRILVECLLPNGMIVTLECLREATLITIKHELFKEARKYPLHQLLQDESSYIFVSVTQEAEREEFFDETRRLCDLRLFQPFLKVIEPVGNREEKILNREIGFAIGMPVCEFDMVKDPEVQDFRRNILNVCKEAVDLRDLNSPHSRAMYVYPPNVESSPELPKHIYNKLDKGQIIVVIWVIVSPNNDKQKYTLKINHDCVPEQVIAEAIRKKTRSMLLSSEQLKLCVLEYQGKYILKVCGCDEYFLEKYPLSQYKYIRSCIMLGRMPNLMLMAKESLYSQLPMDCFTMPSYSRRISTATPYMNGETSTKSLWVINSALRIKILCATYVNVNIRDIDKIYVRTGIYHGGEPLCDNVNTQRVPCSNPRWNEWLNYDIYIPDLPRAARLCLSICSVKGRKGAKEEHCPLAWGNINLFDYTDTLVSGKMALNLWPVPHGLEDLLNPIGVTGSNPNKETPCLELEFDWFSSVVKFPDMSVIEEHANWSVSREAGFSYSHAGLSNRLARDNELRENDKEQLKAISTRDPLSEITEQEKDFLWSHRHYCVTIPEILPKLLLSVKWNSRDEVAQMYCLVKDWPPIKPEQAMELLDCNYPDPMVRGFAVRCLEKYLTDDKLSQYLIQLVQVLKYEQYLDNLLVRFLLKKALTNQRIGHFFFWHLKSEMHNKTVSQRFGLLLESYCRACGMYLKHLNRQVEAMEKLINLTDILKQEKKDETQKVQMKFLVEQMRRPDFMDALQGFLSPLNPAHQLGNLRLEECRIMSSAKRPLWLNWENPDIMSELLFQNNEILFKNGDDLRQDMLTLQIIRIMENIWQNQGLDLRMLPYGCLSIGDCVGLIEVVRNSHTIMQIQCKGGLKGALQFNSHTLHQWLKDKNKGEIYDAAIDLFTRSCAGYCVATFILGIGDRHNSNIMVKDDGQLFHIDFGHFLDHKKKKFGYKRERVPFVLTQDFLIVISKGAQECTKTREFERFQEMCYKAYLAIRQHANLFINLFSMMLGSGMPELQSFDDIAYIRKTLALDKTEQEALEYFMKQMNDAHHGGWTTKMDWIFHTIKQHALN

PIM3 = PIM3 (Homo sapiens, UniProt Q86V86)
PRKD3 = PRKD3 (Homo sapiens, UniProt O94806)
RET (V804L) = RET (V804L) (Homo sapiens, UniProt P07949, V804L)
RIPK2 = RIPK2 (Homo sapiens, UniProt O43353)
[4] = molecular target: RPS6KA4 Kin.Dom.2-C-terminal (Homo sapiens, UniProt O75676)
[5] = molecular target: RSK3 Kin.Dom.1-N-terminal (Homo sapiens, UniProt Q15349)
Sequence of RSK3 Kin.Dom.1-N-terminal (Q15349 59-318 limits assumed): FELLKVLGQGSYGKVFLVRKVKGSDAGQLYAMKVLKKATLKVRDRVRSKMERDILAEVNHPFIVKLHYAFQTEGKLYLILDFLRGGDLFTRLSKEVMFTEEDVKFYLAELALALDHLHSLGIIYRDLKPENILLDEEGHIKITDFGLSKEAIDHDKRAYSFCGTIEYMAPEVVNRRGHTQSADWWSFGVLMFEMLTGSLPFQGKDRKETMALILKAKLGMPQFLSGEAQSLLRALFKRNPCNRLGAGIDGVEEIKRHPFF

SNARK = SNARK (Homo sapiens, UniProt Q9H093)
TAOK1 = TAOK1 (Homo sapiens, UniProt Q7L7X3)
TAOK2 = TAOK2 (Homo sapiens, UniProt Q9UL54)
TGFBR1 = TGFBR1 (Homo sapiens, UniProt P36897)
Sequence of TGFBR1 (P36897 34-503): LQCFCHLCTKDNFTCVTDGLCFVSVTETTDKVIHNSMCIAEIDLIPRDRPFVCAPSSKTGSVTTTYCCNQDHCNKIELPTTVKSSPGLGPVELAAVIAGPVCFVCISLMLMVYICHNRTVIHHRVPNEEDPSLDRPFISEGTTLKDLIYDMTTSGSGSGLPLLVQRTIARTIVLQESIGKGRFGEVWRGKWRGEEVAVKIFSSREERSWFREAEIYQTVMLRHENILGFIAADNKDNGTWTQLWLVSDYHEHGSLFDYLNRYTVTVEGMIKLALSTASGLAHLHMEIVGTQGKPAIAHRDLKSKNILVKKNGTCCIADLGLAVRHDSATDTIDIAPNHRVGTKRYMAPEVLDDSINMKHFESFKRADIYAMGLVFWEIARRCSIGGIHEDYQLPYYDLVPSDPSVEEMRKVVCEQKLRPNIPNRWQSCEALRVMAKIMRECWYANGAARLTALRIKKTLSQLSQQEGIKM

TGFBR2 = TGFBR2 (Homo sapiens, UniProt P37173)
TIE2 = TIE2 (Homo sapiens, UniProt Q02763)
TRPM6 = TRPM6 (Homo sapiens, UniProt Q9BX84)
TTK = TTK (Homo sapiens, UniProt P33981)
VEGFR2 = molecular target: T3, VEGFR2 (Homo sapiens, UniProt P35968)
T3 construct: purchased DiscoveRx (KINOMEscan, LeadHunter Discovery services)
T3 sequence (P35968 20-1356): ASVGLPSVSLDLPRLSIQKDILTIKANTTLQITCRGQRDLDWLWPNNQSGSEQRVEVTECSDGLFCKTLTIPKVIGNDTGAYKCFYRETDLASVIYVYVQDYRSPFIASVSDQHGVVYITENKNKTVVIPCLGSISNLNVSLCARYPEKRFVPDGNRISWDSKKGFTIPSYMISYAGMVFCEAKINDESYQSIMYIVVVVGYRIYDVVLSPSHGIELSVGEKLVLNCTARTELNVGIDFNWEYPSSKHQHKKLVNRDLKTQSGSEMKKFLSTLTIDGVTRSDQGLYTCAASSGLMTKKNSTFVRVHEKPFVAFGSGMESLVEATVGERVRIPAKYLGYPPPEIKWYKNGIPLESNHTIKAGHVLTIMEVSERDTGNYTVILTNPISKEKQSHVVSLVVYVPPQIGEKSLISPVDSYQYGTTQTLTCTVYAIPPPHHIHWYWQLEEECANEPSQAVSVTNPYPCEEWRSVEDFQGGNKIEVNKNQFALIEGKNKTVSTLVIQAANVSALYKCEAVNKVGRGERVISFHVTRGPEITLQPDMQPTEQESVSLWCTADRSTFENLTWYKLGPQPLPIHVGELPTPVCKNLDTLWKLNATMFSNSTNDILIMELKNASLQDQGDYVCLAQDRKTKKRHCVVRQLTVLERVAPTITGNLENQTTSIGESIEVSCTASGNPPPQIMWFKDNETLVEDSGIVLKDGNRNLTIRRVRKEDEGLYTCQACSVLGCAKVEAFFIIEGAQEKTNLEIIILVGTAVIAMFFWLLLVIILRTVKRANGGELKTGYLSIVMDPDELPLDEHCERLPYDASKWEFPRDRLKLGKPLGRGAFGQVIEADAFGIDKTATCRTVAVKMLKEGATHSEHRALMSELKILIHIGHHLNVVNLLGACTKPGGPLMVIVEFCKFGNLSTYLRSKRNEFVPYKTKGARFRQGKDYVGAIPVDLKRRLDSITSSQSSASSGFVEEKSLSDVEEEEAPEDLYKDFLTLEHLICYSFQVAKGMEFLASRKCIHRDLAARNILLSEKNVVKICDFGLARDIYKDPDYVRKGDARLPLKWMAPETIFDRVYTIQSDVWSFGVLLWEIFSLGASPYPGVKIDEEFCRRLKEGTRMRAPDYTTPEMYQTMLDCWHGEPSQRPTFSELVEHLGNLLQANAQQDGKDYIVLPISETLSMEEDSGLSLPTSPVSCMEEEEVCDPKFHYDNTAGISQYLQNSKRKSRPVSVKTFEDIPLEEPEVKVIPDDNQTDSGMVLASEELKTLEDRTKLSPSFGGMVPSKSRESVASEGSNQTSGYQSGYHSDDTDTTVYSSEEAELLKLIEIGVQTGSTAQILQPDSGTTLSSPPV

| SMILES | remaining binding at 10 µM [1] | remaining binding at 10 µM (ALK (C1156Y)) | remaining binding at 10 µM (AURKA) | remaining binding at 10 µM (BTK) | remaining binding at 10 µM (CDK5) | remaining binding at 10 µM (CLK1) | remaining binding at 10 µM (DCAMKL1) | remaining binding at 10 µM [2] | remaining binding at 10 µM [3] | remaining binding at 10 µM (EPHA2) | remaining binding at 10 µM (EPHA7) | remaining binding at 10 µM (EPHB4) | remaining binding at 10 µM (HIPK3) | remaining binding at 10 µM (IKK-alpha) | remaining binding at 10 µM (INSRR) | remaining binding at 10 µM (KIT (A829P)) | remaining binding at 10 µM (LRRK2 (G2019S)) | remaining binding at 10 µM (MAPKAPK5) | remaining binding at 10 µM (MARK2) | remaining binding at 10 µM (MST1R) | further results |
| --- | --- | --- | --- | --- | --- | --- | --- | --- | --- | --- | --- | --- | --- | --- | --- | --- | --- | --- | --- | --- | --- |
| Nc1ncc(-c2nc3ccccc3o2)c(-c2ccncc2)n1 [Comparative Compound 324, 5-(1,3-benzoxazol-2-yl)-4-(pyridine-4-yl)pyrimidin-2-amine] | 100% | 100% | 99% | 92% | 100% | 80% | 41% | 64% | 54% | 98% | 87% | 100% | 91% | 92% | 100% | 79% | 76% | 100% | 91% | 85% | remaining binding at 10 µM (MST4): 68%; remaining binding at 10 µM (MTOR): 71%; remaining binding at 10 µM (NEK10): 56%; remaining binding at 10 µM (NIM1): 96%; remaining binding at 10 µM (PIK3CA (I800L)): 52%; remaining binding at 10 µM (PIM3): 94%; remaining binding at 10 µM (PRKD3): 91%; remaining binding at 10 µM (RET (V804L)): 86%; remaining binding at 10 µM (RIPK2): 85%; remaining binding at 10 µM [4]: 100%; remaining binding at 10 µM [5]: 100%; remaining binding at 10 µM (SNARK): 98%; remaining binding at 10 µM (TAOK1): 100%; remaining binding at 10 µM (TAOK2): 98%; remaining binding at 10 µM (TGFBR1): 94%; remaining binding at 10 µM (TGFBR2): 100%; remaining binding at 10 µM (TIE2): 98%; remaining binding at 10 µM (TRPM6): 53%; remaining binding at 10 µM (TTK): 100%; remaining binding at 10 µM (VEGFR2): 94% |
| CNc1c(C(N)=O)c2ccccn2c1C(=O)c1ccc(F)cc1 [Compound A, 2-methyl-amino-3-[(4-fluorophenyl)carbonyl]indolizine-1-carboxamide] | 37% | 98% | 91% | 88% | 81% | 67% | 44% | 13% | 12% | 70% | 82% | 54% | 79% | 96% | 100% | 86% | 86% | 100% | 85% | 81% | remaining binding at 10 µM (MST4): 65%; remaining binding at 10 µM (MTOR): 96%; remaining binding at 10 µM (NEK10): 100%; remaining binding at 10 µM (NIM1): 87%; remaining binding at 10 µM (PIK3CA (I800L)): 72%; remaining binding at 10 µM (PIM3): 90%; remaining binding at 10 µM (PRKD3): 74%; remaining binding at 10 µM (RET (V804L)): 67%; remaining binding at 10 µM (RIPK2): 67%; remaining binding at 10 µM [4]: 100%; remaining binding at 10 µM [5]: 83%; remaining binding at 10 µM (SNARK): 91%; remaining binding at 10 µM (TAOK1): 94%; remaining binding at 10 µM (TAOK2): 80%; remaining binding at 10 µM (TGFBR1): 92%; remaining binding at 10 µM (TGFBR2): 100%; remaining binding at 10 µM (TIE2): 100%; remaining binding at 10 µM (TRPM6): 69%; remaining binding at 10 µM (TTK): 92%; remaining binding at 10 µM (VEGFR2): 79% |
